Results on twelve molecules are retold here after US11084833B2, “Antibacterial agents against D,D- and L,D-transpeptidases” (priority 2016, dated 2021).

Where two headings read alike, the source gives them in different places.

For data set [1], the system named is Mycobacterium tuberculosis. Description: Broth dilution MIC. The following applies: 336 h, end point reading at 2 weeks. The format is cell-based. In general terms: Broth dilution looks for growth in wells or tubes with falling amounts of substance.
Data set [2] relates to Methicillin Resistant Staphylococcus aureus. Briefly: Broth dilution MIC. The class given is cell-based. The following applies: overnight incubation.
For data set [3], the system named is Methicillin Susceptible Staphylococcus aureus. Description: Broth dilution MIC. The format is cell-based. The following applies: overnight incubation.
A further data set relates to Klebsiella pneumoniae. Briefly: Broth dilution MIC. The class given is cell-based. The following applies: overnight incubation.
A further data set deals with Enterobacter cloacae. Briefly: Broth dilution MIC. The format is cell-based. The following applies: overnight incubation.
Another data set deals with Pseudomonas aeruginosa. Briefly: Broth dilution MIC. The class given is cell-based. The following applies: overnight incubation.
The test system of data set [4] is Actinobacter baumannii 6 M-1b. Briefly: Broth dilution MIC. The following applies: overnight incubation. The format is cell-based.
Data set [5] deals with T1, LdtMt2 (Mycobacterium tuberculosis, UniProt I6Y9J2). The class given is binding, M. tuberculosis. The following applies: for acyl-enzyme adduct mass: UPLC-MS.
The target of data set [6] is T1, LdtMt2. Description: biochemical. More on the design: species or system M. tuberculosis. The following applies: non-linear regression, read-out: kinact/Kapp ratio (converted).
The target in data set [7] is T1, LdtMt2. Description: Nitrocefin hydrolyzing activity after incubation with β-lactams. The class given is biochemical, M. tuberculosis.
A further data set deals with M. tuberculosis H37Rv. The format is in vivo, BALB/c mice. The following applies: for gross lung lesions: either alone or in combination with rifampin, end of treatment.
Data set [8] has as its system dehydropepetidase-1 (DHP-1). The following applies: cited from earlier work.
The target in data set [9] is penicillin binding protein DacB2 (Mycobacterium tuberculosis, UniProt I6Y204). Description: UPLC-MS analysis of acyl-enzyme adducts.
Data set [10] concerns LdtMab2. Briefly: UPLC-HRMS analysis of L,D-transpeptidase/β-lactam adducts. The format is binding, Mycobacterium abscessus. The following applies: over both the non-carbapenems and carbapenems tested.
The next data set concerns LdtCl. Described as above. The format is binding, Enterobacter cloacae. The following applies: over both the non-carbapenems and carbapenems tested.
Another data set has as its system LdtKp. Described as above. The class given is binding, Klebsiella pneumoniae. The following applies: over both the non-carbapenems and carbapenems tested.
For data set [11], the target named is T2, LdtMt1 (Mycobacterium tuberculosis, UniProt O53638). Briefly: UPLC-MS analysis of acyl-enzyme adducts. The format is binding, M. tuberculosis.
Another data set relates to LdtPa. Description: UPLC-MS analysis of acyl-enzyme adducts. The following applies: over both the non-carbapenems and carbapenems tested. The format is binding, Pseudomonas aeruginosa.
For data set [12], the system named is LdtMab1. Description: UPLC-MS analysis of acyl-enzyme adducts. The format is binding, Mycobacterium abscessus. The following applies: over both the non-carbapenems and carbapenems tested.
The target of data set [13] is T2, LdtMt1. The format is binding, M. tuberculosis.
Data set [14] deals with T1, LdtMt2. The format is binding, M. tuberculosis.
In data set [15] the test system is LdtMab1. Description: Isothermal titration calorimetry. The format is binding, M. abscessus. Background: Isothermal titration calorimetry measures the heat released or taken up as one component is titrated into another.
Data set [16] relates to LdtMab2. The class given is binding, M. abscessus.
Where [17] appears, read: Enterobacter cloacae, read-out: MIC.
Where [18] appears, read: following incubation with β-lactam.
The mark [19] stands for this setting: equimolar mixture of faropenem, doripenem, biapenem and tebipenem.

T1 sequence (I6Y9J2 35-408 limits assumed): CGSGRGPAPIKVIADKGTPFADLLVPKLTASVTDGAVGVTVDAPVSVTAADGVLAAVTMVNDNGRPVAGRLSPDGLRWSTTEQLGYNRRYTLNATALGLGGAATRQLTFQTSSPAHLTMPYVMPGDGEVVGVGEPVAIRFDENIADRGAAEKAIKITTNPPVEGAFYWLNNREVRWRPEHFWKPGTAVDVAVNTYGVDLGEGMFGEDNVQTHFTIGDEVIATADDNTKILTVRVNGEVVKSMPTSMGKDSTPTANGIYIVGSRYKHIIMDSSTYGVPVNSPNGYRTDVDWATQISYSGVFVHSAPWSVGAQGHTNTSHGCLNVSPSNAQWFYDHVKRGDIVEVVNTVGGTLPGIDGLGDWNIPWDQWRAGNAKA
T2 sequence (O53638 29-251): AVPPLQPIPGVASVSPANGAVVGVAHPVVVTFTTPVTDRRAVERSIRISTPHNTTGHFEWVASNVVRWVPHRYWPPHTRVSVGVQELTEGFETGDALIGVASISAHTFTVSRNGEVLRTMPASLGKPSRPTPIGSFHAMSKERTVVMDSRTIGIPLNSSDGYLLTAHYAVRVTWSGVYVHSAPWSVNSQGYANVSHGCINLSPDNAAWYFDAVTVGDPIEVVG
penicillin binding protein DacB2, sequence (I6Y204 23-291): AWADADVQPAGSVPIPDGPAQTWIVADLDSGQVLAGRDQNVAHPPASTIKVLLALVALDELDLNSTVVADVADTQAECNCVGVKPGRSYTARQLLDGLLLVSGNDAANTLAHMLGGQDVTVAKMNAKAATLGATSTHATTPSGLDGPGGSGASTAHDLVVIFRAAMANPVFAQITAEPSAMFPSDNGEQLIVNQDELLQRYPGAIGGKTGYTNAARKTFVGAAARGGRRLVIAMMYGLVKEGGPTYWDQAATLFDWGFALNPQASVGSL

As for `C[C@@H](O)C1C(=O)N2C(C(=O)[O-])=C(SC3CN(C4=NCCS4)C3)SC12.[K+]` (stereo in doubt) [Compound T405, Potassium (5S,6R)-3-((1-(4,5-dihydrothiazol-2-yl)azetidin-3-yl)thio)-6-((R)-1-hydroxyethyl)-7-oxo-4-thia-1-azabicyclo[3.2.0]hept-2-ene-2-carboxylate], the MIC in data set [1] is 0.5 to 1 µg/mL; in [2] it was 0.03 to 0.06 µg/mL; in [3], 0.03 to 0.06 µg/mL; in the data set with Klebsiella pneumoniae it was 0.125 to 0.25 µg/mL; in the data set on Enterobacter cloacae (setting [17]), 0.25 to 0.5 µg/mL; with Pseudomonas aeruginosa, 4 to 8 µg/mL. Also, the MIC in data set [4] lay within 4 to 8 µg/mL.
The molecule `C[C@@H](O)[C@H]1C(=O)N2C(C(=O)[O-])=C(SC3CNC(CNS(N)(=O)=O)C3)S[C@H]12.[K+]` (stereo in doubt) [Compound T409, Potassium (5R,6S)-6-((R)-1-hydroxyethyl)-7-oxo-3-(((3R,5R)-5-((sulfamoylamino)methyl)pyrrolidin-3-yl)thio)-4-thia-1-azabicyclo[3.2.0]hept-2-ene-2-carboxylate] registered an MIC in data set [1] of 0.5 to 1 µg/mL.
As to `C[C@@H](O)[C@H]1C(=O)N2C(C(=O)[O-])=C(SC3CNC(C(=O)N(C)C)C3)S[C@H]12.[K+]` (stereo in doubt) [Compound T410, Potassium (5R,6S)-3-(((3R,5R)-5-(dimethylcarbamoyl)pyrrolidin-3-yl)thio)-6-((R)-1-hydroxyethyl)-7-oxo-4-thia-1-azabicyclo[3.2.0]hept-2-ene-2-carboxylate], the minimal inhibitory concentration (MIC) in [1] fell in the range of 8 to 16 µg/mL; against Klebsiella pneumoniae, 2 to 4 µg/mL; in the data set on Enterobacter cloacae (setting [17]), 1 to 2 µg/mL; in the data set on Pseudomonas aeruginosa, 0.5 to 1 µg/mL; in data set [4], 0.5 to 1 µg/mL.
As to `CCCSC1=C(C(=O)[O-])N2C(=O)[C@H]([C@@H](C)O)[C@H]2S1.[K+]` [Compound T406, Potassium (5R,6S)-6-((R)-1-hydroxyethyl)-3-propylthio-7-oxo-4-thia-1-azabicyclo[3.2.0]hept-2-ene-2-carboxylate], the MIC in [1] is 0.5 to 1 µg/mL; against Klebsiella pneumoniae it was 0.25 to 0.5 µg/mL; with Enterobacter cloacae (setting [17]) it was 4 to 8 µg/mL; in data set [4] it was 4 to 8 µg/mL.
On to `C[C@@H](O)[C@H]1C(=O)N2C(C(=O)[O-])=C(SCCO)S[C@H]12.[K+]` [Compound T407, Potassium (5R,6S)-6-((R)-1-hydroxyethyl)-3-((2-hydroxyethyl)thio)-7-oxo-4-thia-1-azabicyclo[3.2.0]hept-2-ene-2-carboxylate], for which the MIC fell in the range of 2 to 4 µg/mL in [1] and 8 to 16 µg/mL against Klebsiella pneumoniae.
Take `COC(=O)CCSC1=C(C(=O)[O-])N2C(=O)[C@H]([C@@H](C)O)[C@H]2S1.[K+]` [Compound T408, Potassium (5R,6S)-6-((R)-1-hydroxyethyl)-3-((3-methoxy-3-oxopropyl)thio)-7-oxo-4-thia-1-azabicyclo[3.2.0]hept-2-ene-2-carboxylate]: the MIC is 0.5 to 1 µg/mL in data set [1], 8 to 16 µg/mL against Klebsiella pneumoniae, 4-8 g/mL in the data set on Enterobacter cloacae (unit as printed for T408) and 16 to 32 µg/mL in data set [4].
Regarding `C[C@@H](O)[C@H]1C(=O)N2C(C(=O)[O-])=C(SC3Cn4cnc[n+]4C3)[C@H](C)[C@H]12` (stereo partly drawn) [biapenem], the adduct formation result at LdtMt2 [5] is given as “Stable adducts could be detected”. The kinact/KI at LdtMt2 [6] was 3830 M⁻¹ s⁻¹. In addition, on LdtMt2 [7] (setting [18]), the “inhibition of nitrocefin hydrolysis” value is given as “robustly inhibited”. Also, the gross lung lesions entry in the data set on M. tuberculosis H37Rv was “prevented the development of gross lung lesions”. Also, the “activity on bacterial load (CFUs) in the lungs” value with M. tuberculosis H37Rv (mouse, in vivo) was “bacteriostatic activity”. Moreover, the “inactivation by DHP-1” value in data set [8] is reported as “resistant to inactivation by DHP-1”.
As for `CC1(C)S[C@@H]2[C@H](NC(=O)C(C(=O)O)c3ccccc3)C(=O)N2[C@H]1C(=O)O` (stereo partly drawn) [carbenicillin], the adduct formation result at LdtMt2 [5] is given as “failed to bind”. In [9] (UPLC-MS), the adduct mass entry is listed as “+379 Da”.
Consider `CC(=O)OCC1=C(C(=O)O)N2C(=O)[C@@H](NC(=O)Cc3cccs3)[C@H]2SC1` [cephalothin], for which the “inhibition of nitrocefin hydrolysis” value at LdtMt2 [7] is given as “comparable inhibitory activity”.
As for `C[C@@H](O)[C@H]1C(=O)N2C(C(=O)O)=C(S[C@@H]3CN[C@H](CNS(N)(=O)=O)C3)[C@H](C)[C@H]12` [doripenem], on LdtMt2 [5], the acyl-enzyme adduct mass is listed as 123 Da. Further, the “inhibition of nitrocefin hydrolysis” value at LdtMt2 [7] (setting [18]) is on record as “robustly inhibited”.
Regarding `C[C@@H](O)[C@H]1C(=O)N2C(C(=O)O)=C([C@H]3CCCO3)S[C@H]12` [faropenem], the acyl-enzyme adduct mass result at LdtMt2 [5] and on LdtMt1 [11] (UPLC-MS) was “+86 Da” each time. In addition, the “adduct detected in competition assay” value on LdtMt2 [5] (setting [19]) and on LdtMt1 [11] (setting [19]) was “the only adduct detected” in each case. Also, the “preferential reaction in β-lactam mixtures” value with LdtMab2 [10], in the data set with LdtCl, in the data set on LdtKp, in the data set on LdtPa and in the data set with LdtMab1 [12] was “preferentially reacted with faropenem” throughout. In data set [9], the “species detected in competition assay” value is “the only species detected”. Moreover, the “inhibition of nitrocefin hydrolysis” value against LdtMt2 [7] (setting [18]) is given as “robustly inhibited”. Besides, the ITC binding entry on LdtMt1 [13] is “single-modality binding”; on LdtMt2 [14], “single-modality binding”; in the data set with LdtMab1 [15], “Binding”; in the data set with LdtMab2 [16], “Binding”. The gross lung lesions entry in the data set on M. tuberculosis H37Rv is “prevented the development of gross lung lesions”.
Regarding `C[C@@H](O)[C@H]1C(=O)N2C(C(=O)O)=C(SC3CN(C4=NCCS4)C3)[C@H](C)[C@H]12` [tebipenem], the ITC binding result on LdtMt1 [13] was “single-modality binding”; at LdtMt2 [14], “single-modality binding”; with LdtMab1 [15], “Binding”; in the data set with LdtMab2 [16] it was “Binding”.

The MIC is the smallest concentration in the dilution series that meets the test's criterion for growth inhibition.
